The target of assay [1] is T1, FLT3 (Homo sapiens, UniProt P36888).
T1 construct: made in house
T1 sequence (P36888 27-993): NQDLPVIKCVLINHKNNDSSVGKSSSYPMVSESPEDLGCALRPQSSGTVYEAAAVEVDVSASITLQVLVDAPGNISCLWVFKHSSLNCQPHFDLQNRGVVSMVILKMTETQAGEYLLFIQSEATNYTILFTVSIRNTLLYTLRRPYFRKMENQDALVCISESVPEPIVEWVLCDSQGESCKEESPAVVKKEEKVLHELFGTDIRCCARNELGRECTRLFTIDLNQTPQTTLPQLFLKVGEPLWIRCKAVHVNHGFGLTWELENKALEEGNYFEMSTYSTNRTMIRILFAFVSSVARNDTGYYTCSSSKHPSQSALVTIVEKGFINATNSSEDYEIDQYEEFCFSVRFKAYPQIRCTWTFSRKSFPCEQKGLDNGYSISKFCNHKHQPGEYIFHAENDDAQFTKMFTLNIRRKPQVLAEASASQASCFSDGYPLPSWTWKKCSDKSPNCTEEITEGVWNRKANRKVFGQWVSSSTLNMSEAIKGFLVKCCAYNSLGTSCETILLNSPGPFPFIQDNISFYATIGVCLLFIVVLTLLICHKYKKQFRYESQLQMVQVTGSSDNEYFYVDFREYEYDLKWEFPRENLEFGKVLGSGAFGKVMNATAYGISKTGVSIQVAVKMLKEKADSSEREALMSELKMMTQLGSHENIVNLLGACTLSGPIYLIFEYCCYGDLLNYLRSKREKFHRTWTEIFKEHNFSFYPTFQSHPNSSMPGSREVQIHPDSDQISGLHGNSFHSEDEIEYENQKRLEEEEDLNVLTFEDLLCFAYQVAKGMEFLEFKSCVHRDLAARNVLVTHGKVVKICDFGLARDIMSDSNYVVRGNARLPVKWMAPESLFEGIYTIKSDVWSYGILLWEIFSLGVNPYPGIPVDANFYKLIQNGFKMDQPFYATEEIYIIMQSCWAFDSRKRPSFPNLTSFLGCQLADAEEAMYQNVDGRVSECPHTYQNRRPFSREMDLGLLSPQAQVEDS
The assay is described as follows: Competition binding assay, FLT3 Kd. As to conditions: competition binding. The gist of the method: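 Kinases, either T7 phage fusions or HEK-293-expressed and DNA-tagged, competed with test compounds for immobilized biotinylated affinity ligand on streptavidin beads in binding buffer (20% SeaBlock, 0.17×PBS, 0.05% Tween 20, 6 mM DTT). After 1 hour at room temperature, bead-bound kinase was eluted and quantified by qPCR; Kd from eleven-point threefold dilutions.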

Assay [2] has as its target CSF1R (Homo sapiens, UniProt P07333). The assay is described as follows: HEK293 CSF1R phosphorylation MSD assay. The format is cell-based. Set-up: expressed in transfected cells; host or cells: HEK293. The settings on record: HEK293 cells, M-CSF stimulated CSF1R phosphorylation, MSD; read-out: HEK293 pCSF1R M-CSF MSD:IC50. The gist of the method: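 Ligand-induced CSF1R autophosphorylation was measured by MSD sandwich assay: CSF1R-FKBP from lysates captured via FK506, anti-phosphotyrosine readout. Cells were exposed to compound for 2 h (9-point, half-log, 0.5% DMSO) before 5 min 50 ng/mL M-CSF. Reported IC50 is the mean of duplicate-plate IC50s relative to DMSO control.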

CSF1R, sequence (P07333 20-972): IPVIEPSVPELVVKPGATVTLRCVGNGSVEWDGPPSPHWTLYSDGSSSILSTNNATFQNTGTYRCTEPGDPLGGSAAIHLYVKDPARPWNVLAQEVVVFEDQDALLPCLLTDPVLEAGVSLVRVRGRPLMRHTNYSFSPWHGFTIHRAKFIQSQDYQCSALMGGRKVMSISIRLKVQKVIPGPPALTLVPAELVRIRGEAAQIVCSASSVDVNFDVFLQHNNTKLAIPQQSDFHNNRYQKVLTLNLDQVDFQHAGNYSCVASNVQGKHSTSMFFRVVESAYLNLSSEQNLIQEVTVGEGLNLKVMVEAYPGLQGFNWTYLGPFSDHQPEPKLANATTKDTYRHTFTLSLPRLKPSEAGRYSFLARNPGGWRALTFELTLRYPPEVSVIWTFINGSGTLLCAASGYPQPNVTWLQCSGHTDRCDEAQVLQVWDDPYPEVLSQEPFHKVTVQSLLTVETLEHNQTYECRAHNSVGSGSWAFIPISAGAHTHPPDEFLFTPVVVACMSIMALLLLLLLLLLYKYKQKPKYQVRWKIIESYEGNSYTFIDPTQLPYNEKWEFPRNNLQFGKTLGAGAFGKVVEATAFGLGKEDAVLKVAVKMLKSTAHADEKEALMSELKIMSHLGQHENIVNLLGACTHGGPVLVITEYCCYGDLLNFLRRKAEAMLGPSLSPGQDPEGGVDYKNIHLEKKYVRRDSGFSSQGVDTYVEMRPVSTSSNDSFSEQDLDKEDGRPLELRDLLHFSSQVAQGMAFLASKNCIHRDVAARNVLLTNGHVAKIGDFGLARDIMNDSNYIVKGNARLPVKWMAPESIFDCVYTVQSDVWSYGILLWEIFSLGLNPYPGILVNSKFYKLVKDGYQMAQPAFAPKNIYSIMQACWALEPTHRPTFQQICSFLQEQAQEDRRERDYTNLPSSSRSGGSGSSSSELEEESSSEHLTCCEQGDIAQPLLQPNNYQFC

In assay [1], `OC[C@@H]1CCCC[C@H]1Nc1nc2ccc(Cn3cnc4cc(Br)cnc43)cc2s1` [Example 133, ((1R,2R)-2-((6-((6-bromo-3H-imidazo[4,5-b]pyridin-3-yl)methyl)benzo[d]thiazol-2-yl)amino)cyclohexyl)methanol] returned a Kd of 1000 to 5000 nM. For the same compound, in assay [2], the half-maximal inhibitory concentration (IC50) was in the range of 50 to 200 nM.
`Cn1nnnc1-c1cnc2c(c1)ncn2Cc1ccc2nc(N[C@@H]3CCCC[C@H]3O)sc2c1` [Example 134, (1R,2R)-2-((6-((6-(1-methyl-1H-tetrazol-5-yl)-3H-imidazo[4,5-b]pyridin-3-yl)methyl)benzo[d]thiazol-2-yl)amino)cyclohexanol]: in assay [1], the Kd was 200 to 1000 nM. Also, the IC50 in assay [2] was ≤ 50 nM.
For `OC[C@H]1CCCC[C@H]1Nc1nc2ccc(Cn3cnc4cc(Br)cnc43)cc2s1` [Example 136, ((1S,2R)-2-((6-((6-bromo-3H-imidazo[4,5-b]pyridin-3-yl)methyl)benzo[d]thiazol-2-yl)amino)cyclohexyl)methanol] the same measures were 1000 to 5000 nM and 50 to 200 nM.
Turning to `O[C@@H]1CCCC[C@H]1Nc1nc2ccc(Cn3cnc4cc(Cl)c(Cl)nc43)cc2s1` [Example 137, (1R,2R)-2-((6-((5,6-dichloro-3H-imidazo[4,5-b]pyridin-3-yl)methyl)benzo[d]thiazol-2-yl)amino)cyclohexanol], the Kd in assay [1] lay in the range of 200 to 1000 nM. Also, the IC50 in assay [2] was ≤ 50 nM.
For `CCOc1ccc2c(c1)ncn2Cc1ccc2nc(N[C@@H]3CCCC[C@H]3O)sc2c1` [Example 138, (1R,2R)-2-((6-((5-ethoxy-1H-benzo[d]imidazol-1-yl)methyl)benzo[d]thiazol-2-yl)amino)cyclohexanol] the same measures were 200 to 1000 nM and ≤ 50 nM.
The corresponding values for `N#Cc1cc2ncn(Cc3ccc4nc(N[C@@H]5CCCC[C@H]5O)sc4c3)c2nc1C#N` [Example 139, 3-((2-(((1R,2R)-2-hydroxycyclohexyl)amino)benzo[d]thiazol-6-yl)methyl)-3H-imidazo[4,5-b]pyridine-5,6-dicarbonitrile] are 200 to 1000 nM and 200 to 500 nM.
Turning to `N#Cc1cnc2c(c1)ncn2Cc1ccc2nc(N[C@@H]3CCCC[C@H]3CO)sc2c1` [Example 140, 3-((2-(((1R,2R)-2-(hydroxymethyl)cyclohexyl)amino)benzo[d]thiazol-6-yl)methyl)-3H-imidazo[4,5-b]pyridine-6-carbonitrile], in assay [1], the Kd is > 5000 nM. Moreover, in assay [2], the IC50 is 200 to 500 nM.
For `O[C@@H]1CCCC[C@H]1Nc1nc2ccc(Cn3cnc4cc(-n5cccn5)cnc43)cc2s1` [Example 141, (1R,2R)-2-((6-((6-(1H-pyrazol-1-yl)-3H-imidazo[4,5-b]pyridine-3-yl)methyl)benzo[d]thiazol-2-yl)amino)cyclohexanol] the same measures were 200 to 1000 nM and ≤ 50 nM.
As to `O[C@@H]1CCCC[C@H]1Nc1nc2ccc(Cc3cnc4cccnn34)cc2o1` [Example 142, (1R,2R)-2-((6-(imidazo[1,2-b]pyridazin-3-ylmethyl)benzo[d]oxazol-2-yl)amino)cyclohexanol], the Kd in assay [1] is ≤ 200 nM. In assay [2], the IC50 was ≤ 50 nM.
The corresponding values for `CNC(=O)c1ccc2ncc(Cc3ccc4nc(N[C@@H]5CCCC[C@H]5O)sc4c3)n2n1` [Example 143, 3-((2-(((1R,2R)-2-hydroxycyclohexyl)amino)benzo[d]thiazol-6-yl)methyl)-N-methylimidazo[1,2-b]pyridazine-6-carboxamide] are 1000 to 5000 nM and 200 to 500 nM.
Consider `OCc1ccc2ncc(Cc3ccc4nc(N[C@@H]5CCCC[C@H]5O)sc4c3)n2n1` [Example 144, (1R,2R)-2-((6-((6-(hydroxymethyl)imidazo[1,2-b]pyridazin-3-yl)methyl)benzo[d]thiazol-2-yl)amino)cyclohexanol], for which the Kd in assay [1] lay within 200 to 1000 nM. Moreover, the concentration for half-maximal inhibition (IC50) in assay [2] lay in the range of 50 to 200 nM.
Regarding `O[C@@H]1CCCC[C@H]1Nc1nc2ccc(Cn3cnc4cc(-n5cncn5)cnc43)cc2s1` [Example 145, (1R,2R)-2-((6-((6-(1H-1,2,4-triazol-1-yl)-3H-imidazo[4,5-b]pyridin-3-yl)methyl)benzo[d]thiazol-2-yl)amino)cyclohexanol], the Kd in assay [1] was 1000 to 5000 nM. In addition, in assay [2], the IC50 was ≤ 50 nM.
In assay [1], `O[C@@H]1CCCC[C@H]1Nc1nc2ccc(Cn3cnc4cc(I)cnc43)cc2s1` [Example 146, (1R,2R)-2-((6-((6-iodo-3H-imidazo[4,5-b]pyridin-3-yl)methyl)benzo[d]thiazol-2-yl)amino)cyclohexanol] registered a Kd of 200 to 1000 nM. Moreover, the IC50 in assay [2] was ≤ 50 nM.
In turn, `Oc1ccc2c(c1)ncn2Cc1ccc2nc(N[C@@H]3CCCC[C@H]3O)sc2c1` [Example 147, 1-((2-(((1R,2R)-2-hydroxycyclohexyl)amino)benzo[d]thiazol-6-yl)methyl)-1H-benzo[d]imidazol-5-ol] showed a Kd in assay [1] of 200 to 1000 nM. In assay [2], the IC50 is ≤ 50 nM.
For `O[C@@H]1CCCC[C@H]1Nc1nc2ccc(Cn3cnc4cc(F)cc(F)c43)cc2s1` [Example 148, (1R,2R)-2-((6-((5,7-difluoro-1H-benzo[d]imidazol-1-yl)methyl)benzo[d]thiazol-2-yl)amino)cyclohexanol] the same measures were 1000 to 5000 nM and 50 to 200 nM.
`O[C@@H]1CCCC[C@H]1Nc1nc2ccc(Cn3cnc4cc(OC(F)(F)F)ccc43)cc2s1` [Example 149, (1R,2R)-2-((6-((5-(trifluoromethoxy)-1H-benzo[d]imidazol-1-yl)methyl)benzo[d]thiazol-2-yl)amino)cyclohexanol] gave a Kd in assay [1] of 1000 to 5000 nM. The IC50 in assay [2] was in the range of 200 to 500 nM.
In assay [1], `COc1ccc2ncc(Cc3ccc4nc(N[C@@H]5CCCC[C@H]5O)sc4c3)n2n1` [Example 150, (1R,2R)-2-((6-((6-methoxyimidazo[1,2-b]pyridazin-3-yl)methyl)benzo[d]thiazol-2-yl)amino)cyclohexanol] gave a Kd of 200 to 1000 nM. Also, in assay [2], the IC50 was in the range of 50 to 200 nM.
Turning to `COc1ccc2c(c1)ncn2Cc1ccc2nc(N[C@@H]3CCCC[C@H]3O)oc2c1` [Example 151, (1R,2R)-2-((6-((5-methoxy-1H-benzo[d]imidazol-1-yl)methyl)benzo[d]oxazol-2-yl)amino)cyclohexanol], the Kd in assay [1] was in the range of 200 to 1000 nM. Besides, in assay [2], the IC50 is ≤ 50 nM.
The corresponding values for `COc1ccc2ncn(Cc3ccc4nc(N[C@@H]5CCCC[C@H]5O)oc4c3)c2c1` [Example 152, (1R,2R)-2-((6-((6-methoxy-1H-benzo[d]imidazol-1-yl)methyl)benzo[d]oxazol-2-yl)amino)cyclohexanol] are ≤ 200 nM and ≤ 50 nM.
The corresponding values for `COCCOc1ccn2c(Cc3ccc4nc(N[C@@H]5CCCC[C@H]5O)sc4c3)cnc2c1` [Example 153, (1R,2R)-2-((6-((7-(2-methoxyethoxy)imidazo[1,2-a]pyridin-3-yl)methyl)benzo[d]thiazol-2-yl)amino)cyclohexanol] are 1000 to 5000 nM and ≤ 50 nM.
The corresponding values for `O[C@@H]1CCCC[C@H]1Nc1nc2cc(F)c(Cn3cnc4cccnc43)cc2s1` [Example 154, (1R,2R)-2-((6-((3H-imidazo[4,5-b]pyridin-3-yl)methyl)-5-fluorobenzo[d]thiazol-2-yl)amino)cyclohexanol] are 1000 to 5000 nM and 50 to 200 nM.
`O[C@@H]1CCCC[C@H]1Nc1nc2ccc(Cc3cnc4ccc(N5CCOCC5)nn34)cc2s1` [Example 155, (1R,2R)-2-((6-((6-morpholinoimidazo[1,2-b]pyridazin-3-yl)methyl)benzo[d]thiazol-2-yl)amino)cyclohexanol]: the Kd in assay [1] was ≤ 200 nM. Further, the IC50 in assay [2] is ≤ 50 nM.
`O[C@@H]1CCCC[C@H]1Nc1nc2c(Cl)cc(Cc3cnc4ccc(N5CCOCC5)nn34)cc2s1` [Example 156, (1R,2R)-2-((4-chloro-6-((6-morpholinoimidazo[1,2-b]pyridazin-3-yl)methyl)benzo[d]thiazol-2-yl)amino)cyclohexanol] showed a Kd in assay [1] of 1000 to 5000 nM. Further, the IC50 in assay [2] fell in the range of 200 to 500 nM.
For `O[C@@H]1CCCC[C@H]1Nc1nc2ccc(Cc3cnc4sccn34)cc2s1` [Example 157, (1R,2R)-2-((6-(imidazo[2,1-b]thiazol-5-ylmethyl)benzo[d]thiazol-2-yl)amino)cyclohexanol] the same measures were > 5000 nM and > 500 nM.

The record behind these values is patent US9938261B2, “Heterocyclic compounds and methods of use thereof” (AMBIT BIOSCIENCES CORPORATION, priority 2011, dated 2018).
